{
  "source": "paper PMC12629513",
  "about": "(Nature, 2024)",
  "key": {"[1]": {"target": "VN1203-H5N1 neuraminidase (NA) (Influenza A virus, UniProt Q6DPL2)", "assay": "biochemical", "parameters": "species or system A/Vietnam/1203/2004 (H5N1)"}, "[2]": {"target": "TX001-H5N1 wild-type neuraminidase (NA) (Influenza A virus, UniProt D0G890)", "format": "biochemical, A/dairy cattle/Texas/24–008749-001/2024 (H5N1)"}, "wild-type TX001-H5N1": {"test_system": "wild-type TX001-H5N1", "settings": "mouse"}, "TX001-H5N1 wild-type": {"test_system": "TX001-H5N1 wild-type", "format": "cell-based, A/dairy cattle/Texas/24–008749-001/2024 (H5N1)"}, "VN1203-H5N1": {"test_system": "VN1203-H5N1", "assay": "microbe, parasite or virus in culture", "format": "cell-based, A/Vietnam/1203/2004 (H5N1)", "settings": "read-out: IC50 of polymerase inhibitor"}, "[3]": {"settings": "read-out: IC50 of neuraminidase inhibitors"}},
  "note": "Like-named read-outs stand apart in the source and are kept apart here.",
  "data": [
    {"smiles": "CCC(CC)[C@H](NC(C)=O)[C@@H]1[C@H](O)[C@@H](C(=O)O)C[C@H]1N=C(N)N", "note": "[Peramivir]", "values": [
      {"measurement": "IC50", "setting": "[1]; [3]", "result": "0.24 ± 0.03", "unit": "nM"},
      {"measurement": "IC50", "setting": "[2]; [3]", "result": "0.195 ± 0.015", "unit": "nM"}
    ]},
    {"smiles": "CC(=O)N[C@H]1[C@H]([C@H](O)[C@H](O)CO)OC(C(=O)O)=C[C@@H]1N=C(N)N", "note": "[Zanamivir]", "values": [
      {"measurement": "Effect on body weight loss and death", "setting": "wild-type TX001-H5N1; in vivo", "result": "delayed body weight loss and death"},
      {"measurement": "Effect on virus titres in lung, nasal turbinate and brain", "setting": "wild-type TX001-H5N1; in vivo", "result": "significantly reduced virus titres in lung, nasal turbinate and brain"},
      {"measurement": "Protection against lethality", "setting": "wild-type TX001-H5N1; in vivo", "result": "did not protect against lethality"},
      {"measurement": "Antiviral sensitivity to NA inhibitor in vitro (interpretation)", "setting": "[2]", "result": "sensitive"}
    ]},
    {"smiles": "NC(=O)c1nc(F)c[nH]c1=O", "note": "[Favipiravir]", "values": [
      {"measurement": "Effectiveness in vivo (body weight, survival, virus titres)", "setting": "wild-type TX001-H5N1; po", "result": "highly effective"},
      {"measurement": "Effectiveness of polymerase inhibitor in vitro", "setting": "TX001-H5N1 wild-type", "result": "highly effective"},
      {"measurement": "IC50", "setting": "VN1203-H5N1; Influenza A virus, H5N1, MDCK, 48 h", "result": "1.65 ± 0.15", "unit": "µg/mL"}
    ]},
    {"smiles": "COC(=O)OCOc1c2n(ccc1=O)N([C@@H]1c3ccccc3SCc3c1ccc(F)c3F)[C@@H]1COCCN1C2=O", "note": "[baloxavir marboxil]", "values": [
      {"measurement": "Effectiveness in vivo (body weight, survival, virus titres)", "setting": "wild-type TX001-H5N1; po", "result": "highly effective"},
      {"measurement": "Effectiveness of polymerase inhibitor in vitro", "setting": "TX001-H5N1 wild-type", "result": "highly effective"}
    ]},
    {"smiles": "CCOC(=O)C1=C[C@@H](OC(CC)CC)[C@H](NC(C)=O)[C@@H](N)C1", "note": "[oseltamivir phosphate]", "values": [
      {"measurement": "Protection against body weight loss, viral replication in tissues, or survival", "setting": "wild-type TX001-H5N1; in vivo, po", "result": "Minimal protection"}
    ]},
    {"smiles": "CO[C@@H]([C@@H]1OC(C(=O)O)=C[C@H](NC(=N)N)[C@H]1NC(C)=O)[C@H](O)CO", "note": "[Laninamivir]", "values": [
      {"measurement": "IC50", "setting": "[1]", "result": "0.41 ± 0.03", "unit": "nM"}
    ]},
    {"smiles": "O=C1c2c(O)c(=O)ccn2N([C@@H]2c3ccccc3SCc3c2ccc(F)c3F)[C@@H]2COCCN12", "note": "[Baloxavir acid]", "values": [
      {"measurement": "IC50", "setting": "TX001-H5N1 wild-type; read-out: IC50 of polymerase inhibitor", "result": "0.61 ± 0.12", "unit": "nM"},
      {"measurement": "IC50", "setting": "VN1203-H5N1", "result": "1.25 ± 0.75", "unit": "nM"}
    ]}
  ]
}
